Results from US11607458B2 (Georgia State University Research Foundation, Inc, priority 2017, dated 2023).
Where “and” joins values, the source holds several entries; their conditions need not be identical. Equal values may be shown once. Read-outs that look alike come from different tables or passages of the source.

How the values were obtained:
[1] = Stability of tetrazine prodrugs in PBS with or without 1 mM cysteine (HPLC); format: physicochemical; details: 25 μM, n = 4; for Prodrugs remaining, 24 h in PBS with 1 mM Cys at 37° C. / Prodrugs remaining, 24 h in PBS with 1 mM Cys at r.t: PBS (5% DMSO) with 1 mM Cys; for Prodrugs remaining, 24 h in PBS at 37° C. / Prodrugs remaining, 24 h in PBS at r.t: PBS (5% DMSO)
Protocol: Due to the electron deficient nature of the tetrazine moiety, the stability of the tetrazine-linked prodrugs in the presence of high concentrations of thiol species was studied. In general, a solution of tetrazine prodrug (500 μL, 500 μM) was added to either 9.5 mL of PBS or 1 mM cysteine solution in PBS in a 20-mL vial. The solution was stirred at r.t. or 37° C. for 24 h. The reaction solution was injected into HPLC, and analyzed with Method A (described above) for prodrugs 1b and 1c, and Method B for prodrug 1d.
Prodrug (1d or 1b, 25 μM in PBS alone or in the presence of 1 mM cysteine (Cys) in PBS) was incubated at r.t or 37° C. for 24 h. Then HPLC was used to monitor the concentration of the remaining prodrug (Table 5). No stability problems were observed.

[2] = Release of the parent drug (Dox / dansyl amine) from prodrugs treated with alkynes, monitored by HPLC; format: physicochemical; details: r.t, PBS 10% DMSO
Protocol: (§1) Standard curve of Dox concentration measurement. To four HPLC vials containing 0.9 mL PBS (size: 1.5 mL) were added 25, 15, 20, 10 μL Dox stock solution (1 mM) respectively. Then defined amounts DMSO (975, 985, 980, and 990 μL) were added to each vial to afford final concentration of four vials were 25, 15, 20, 10 μM in PBS (10% DMSO), respectively. The samples were analyzed with HPLC method A. Dox retention time: 4.0 min.
as §1, with “for DA” for “of Dox”, “B. DA” for “A. Dox”, “5.8” for “4.0”
General procedures HPLC studies of reaction kinetics. To three 20-ml vials with 9 mL PBS were added a solution of tetrazine prodrug (500 μL, 500 μM). 350 μL, 300 μL and 250 μL DMSO were added to vial respectively, and then 150 μL, 200 μL and 250 μL of the alkyne solution (50 mM in DMSO) were added to the vials to afford final concentrations of alkyne 0.75 mM, 1 mM and 1.25 mM in PBS (10% DMSO, 25 μM prodrug) respectively. The reaction was stirred at r.t or 37° C. respectively. Every 30 min about 500 μL reaction mixtures were taken out and 20 μL of them were injected into the HPLC by the autosampler; the rest of them were poured back to the reaction mixture. (Note: In the cases of prodrugs 1d or 1b reacting with alkyne 2d at 37° C., the final concentrations of 2d in the kinetic studies were 250 μM, 300 μM and 350 μM).
Results. The results from the reaction kinetics studies of the tetrazine-cyclooctyne system are summarized below in Table 4. Prodrugs 1d or 1b (25 μM) were treated with alkynes 2d, 2c ,2a, or 2b at different concentrations at room temperature (r.t.) or 37° C., respectively. The prodrug consumption and release of the parent drug were monitored by HPLC (Table 4).

[3] = test system: HeLa cells; assay: Cytotoxicity studies in HeLa cells (MTT assay / crystal violet assay); format: cell-based
Protocol: Cell cultures. HeLa cells (ATCC) were used in the following cell culture studies. HeLa cells were maintained in DMEM (Dulbecco's Modified Eagle's Medium) supplemented with 10% fetal bovine serum (MidSci; S01520HI), and 1% penicillin-streptomycin (Sigma-Aldrich; P4333) at 37° C. with 5% CO2.
Cytotoxicity studies. Test compound was dissolved in DMSO to afford a stock solution. The final concentration of DMSO in the cell culture was 1% (v/v) in PBS. HeLa cells were seeded in 96-well plates one day before the experiment. Different concentrations of prodrug was added into the cell culture. The cells were then incubated for 48 h at 37° C. with 5% CO2. The cell viability was tested by the MTT assay described in Levitz, S. M., et al. J Infect Dis 1985, 152, 938-945. Specifically, after 48 h of incubation, 5 mg/mL MTT (3-(4,5-dimethylthiazol-2-yl)-2,5-diphenyltetrazolium bromide) was added into the cell culture. After incubation for 4 h, the supernatant was removed and 100 μL DMSO was added into the wells containing the cells. After shaking gently for 3 min, absorbance at 605 nm was read by a plate reader.
Cytotoxicity studies using crystal violet assay. The test compound was dissolved in DMSO to afford a stock solution. The final concentration of DMSO in cell culture was 1% (v/v) in PBS. HeLa cells were seeded in 96-well plates one day before the experiment. Different concentrations of the test compound were added into the cell culture. The cells were then incubated for 48 h at 37° C. with 5% CO2. Cell viability was tested by the crystal violet assay. Specifically, after 48 h of incubation, the cells were fixed in 100% methanol for 10 min and stained for 20 min with a 1% crystal violet solution in 50% methanol, followed by 5 repeated washings with PBS. 50 μL of DMSO was added to each well. After 20 min of incubation, the plates were analyzed in a microplate reader at 595 nm.
Similar results were observed when the alkyne concentration was decreased to 10 μM. For example, the IC50 of TPP-Dox prodrug 1c was about 2 μM in the presence of 2b, while the IC50 for Dox prodrug 1b was well over 10 μM in the presence of 10 μM of the alkyne trigger 2a (FIG. 3a). As controls, both the IC50 values of 1c and 2b alone were higher than 40 μM, and the treatment of 20 μM of alkyne 2a or 2b alone had no effect on cell viability. […] Without such an enrichment, the reaction is expected to be slow, resulting in a lower level of active Dox being released. […] Thus, mitochondrial enrichment leads to triggered release of the drug. The same concept is applicable to the delivery of drugs through other targeting approaches such as receptor-mediated drug delivery.

| SMILES | Prodrugs remaining, 24 h in PBS with 1 mM Cys at 37° C. [1] | Prodrugs remaining, 24 h in PBS with 1 mM Cys at r.t [1] | Prodrugs remaining, 24 h in PBS at 37° C. [1] | Prodrugs remaining, 24 h in PBS at r.t [1] | Time of the Dox peak (in brackets in the Dox Peak % cell) ([2]; alkyne 2a) | Time of the Dox peak (in brackets in the Dox Peak % cell) ([2]; alkyne 2b) | Time of the Dox peak (in brackets in the Dox Peak % cell) ([2]; alkyne 2c) | Time of the Dox peak (in brackets in the Dox Peak % cell) ([2]; alkyne 2d) | IC50 ([3]; compound alone, 48 h, read-out: IC50 in Hela cell line) | IC50 ([3]; in the presence of 10 μM alkyne trigger 2a, 48 hours (FIG. 3a), read-out: IC50 in HeLa cells) | IC50 ([3]; in the presence of 20 μM alkyne 2a, 48 hours (FIG. 3b), read-out: IC50 in HeLa cells) | IC50 ([3]; in the presence of 50 μM alkyne 2b, 48 h, listed as Dox-prodrug 1b, read-out: IC50 in Hela cell line) | IC50 ([3]; in the presence of 50 μM alkyne 2b, 48 h, listed as Dox-prodrug lb, read-out: IC50 in Hela cell line) | IC50 ([3]; in the presence of 50 μM alkyne 2d, 48 h, listed as Dox-prodrug 1b, read-out: IC50 in Hela cell line) | IC50 ([3]; in the presence of 100 μM alkyne 2d, 48 h, read-out: IC50 in Hela cell line) | IC50 ([3]; Homo sapiens, HeLa, 48 h, compound alone, 48 h, read-out: IC50 in Hela cell line) | IC50 ([3]; Homo sapiens, HeLa, 48 h, in the presence of 10 μM alkyne 2b, 48 hours (FIG. 3a), read-out: IC50 in HeLa cells) | IC50 ([3]; Homo sapiens, HeLa, 48 h, in the presence of 20 μM TPP-alkyne 2b, 48 hours (FIG. 3b), read-out: IC50 in HeLa cells) |
| --- | --- | --- | --- | --- | --- | --- | --- | --- | --- | --- | --- | --- | --- | --- | --- | --- | --- | --- |
| C#CCOc1ccc(-c2nnc(C(=O)NC3CC(OC4CC(O)(C(=O)CO)Cc5c(O)c6c(c(O)c54)C(=O)c4c(OC)cccc4C6=O)OC(C)C3O)nn2)cc1 (centres unmarked) [1b] | 76 ± 5% | 80 ± 5% | 78 ± 5% | 85 ± 5% | 19 h | 18 h | 21 h | 48 h | > 100000 nM | > 10000 nM | ~10000 nM | ~2000 nM | 2300 ± 400 nM | ~1500 nM and 1500 nM | 1300 ± 200 nM |  |  |  |
| COc1cccc2c1C(=O)c1c(O)c3c(c(O)c1C2=O)CC(O)(C(=O)CO)CC3OC1CC(NC(=O)c2nnc(-c3ccc(OCc4cn(CCCCCCCCC[P+](c5ccccc5)(c5ccccc5)c5ccccc5)nn4)cc3)nn2)C(O)C(C)O1 (centres unmarked) [1c] |  |  |  |  |  | 18 h |  |  |  |  |  |  |  |  |  | > 40000 nM | ~2000 nM | ~1500 nM |
| C#CCOc1ccc(-c2nnc(C(=O)NCCCOCCOCCOCCCNS(=O)(=O)c3cccc4c(N(C)C)cccc34)nn2)cc1 [1d] | 81 ± 5% | 88 ± 5% | 85 ± 5% | 91 ± 5% |  | 16 h | 20 h | 48 h |  |  |  |  |  |  |  |  |  |  |
